Source: US11505560B2, “Heterobifunctional compounds with improved specificity” (DANA-FARBER CANCER INSTITUTE, INC., priority 2017, dated 2022)

Experiments:
[1] = tested on: IKZF1, IKZF3 and ZFP91 in MM.1s cells; test: Quantitative proteomics (TMT LC-MS3) in MM.1s cells; type: cell-based, human; conditions: 1 μM, five hours
Protocol: A micro-BCA assay (Pierce) was used to determine the final protein concentration in the cell lysate. […] Proteins were precipitated using methanol/chloroform. In brief, four volumes of methanol were added to the cell lysate, followed by one volume of chloroform, and finally three volumes of water.

[2] = molecular target: T1, IKZF1Δ-EGFP fusion protein (Homo sapiens, UniProt Q13422+Q96SW2, DEL197-239); test: IKZF1Δ-EGFP fusion protein degradation reporter assay (flow cytometry); type: cell-based; conditions: HEK293T cells
T1 construct: expressed in transfected cells; HEK293T cells
T1 sequence (Q13422 with tags, fused parts or gaps DEL197-239 limits assumed): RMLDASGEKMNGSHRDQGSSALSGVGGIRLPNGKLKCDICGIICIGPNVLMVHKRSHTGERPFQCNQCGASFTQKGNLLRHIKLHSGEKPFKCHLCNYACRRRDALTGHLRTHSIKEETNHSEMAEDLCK
T1 sequence (Q96SW2 whole entry, stated change not applied, the tested form may be a part): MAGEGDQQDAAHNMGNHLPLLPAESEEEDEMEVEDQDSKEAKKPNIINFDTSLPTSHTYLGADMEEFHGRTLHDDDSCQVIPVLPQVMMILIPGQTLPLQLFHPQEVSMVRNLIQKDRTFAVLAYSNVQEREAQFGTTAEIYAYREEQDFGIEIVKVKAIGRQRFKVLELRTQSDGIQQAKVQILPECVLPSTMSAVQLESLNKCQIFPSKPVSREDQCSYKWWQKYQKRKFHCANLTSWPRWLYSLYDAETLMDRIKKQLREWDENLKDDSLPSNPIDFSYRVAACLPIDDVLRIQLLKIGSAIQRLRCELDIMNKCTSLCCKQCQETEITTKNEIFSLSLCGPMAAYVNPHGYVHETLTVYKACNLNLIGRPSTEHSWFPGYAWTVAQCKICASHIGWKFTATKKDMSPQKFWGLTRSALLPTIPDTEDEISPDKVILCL
T1 sequence (Q16531 whole entry partner, the tested form may be a part): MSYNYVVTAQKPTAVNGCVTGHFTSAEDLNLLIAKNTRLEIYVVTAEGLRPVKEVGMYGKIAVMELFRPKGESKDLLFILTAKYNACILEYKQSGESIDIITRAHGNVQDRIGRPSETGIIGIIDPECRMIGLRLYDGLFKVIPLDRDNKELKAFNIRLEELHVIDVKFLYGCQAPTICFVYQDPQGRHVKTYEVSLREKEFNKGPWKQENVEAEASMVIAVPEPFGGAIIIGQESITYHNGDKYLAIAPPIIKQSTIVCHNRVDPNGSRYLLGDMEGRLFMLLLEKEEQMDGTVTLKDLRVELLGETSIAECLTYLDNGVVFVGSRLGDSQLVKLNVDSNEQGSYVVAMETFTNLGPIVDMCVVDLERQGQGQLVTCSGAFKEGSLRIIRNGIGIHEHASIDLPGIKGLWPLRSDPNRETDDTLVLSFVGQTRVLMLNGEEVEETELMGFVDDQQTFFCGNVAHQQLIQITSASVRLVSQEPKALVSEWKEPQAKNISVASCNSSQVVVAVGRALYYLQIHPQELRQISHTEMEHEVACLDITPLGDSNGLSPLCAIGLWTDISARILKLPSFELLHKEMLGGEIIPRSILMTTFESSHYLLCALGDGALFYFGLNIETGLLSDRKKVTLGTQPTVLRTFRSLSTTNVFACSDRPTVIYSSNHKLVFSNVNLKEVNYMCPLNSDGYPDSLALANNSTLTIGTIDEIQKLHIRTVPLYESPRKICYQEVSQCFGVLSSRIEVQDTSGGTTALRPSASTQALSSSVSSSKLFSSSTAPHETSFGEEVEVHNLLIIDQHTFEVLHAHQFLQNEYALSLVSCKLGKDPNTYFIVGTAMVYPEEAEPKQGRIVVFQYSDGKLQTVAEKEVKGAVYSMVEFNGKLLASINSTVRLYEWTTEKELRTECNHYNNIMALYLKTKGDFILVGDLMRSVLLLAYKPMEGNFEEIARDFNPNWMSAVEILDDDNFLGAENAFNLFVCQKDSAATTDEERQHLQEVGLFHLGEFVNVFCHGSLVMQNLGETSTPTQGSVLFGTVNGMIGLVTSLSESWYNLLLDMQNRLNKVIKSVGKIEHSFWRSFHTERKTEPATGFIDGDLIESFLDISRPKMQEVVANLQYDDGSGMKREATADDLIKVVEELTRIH
Protocol: IKZF1A, BRD2BD1, BRD2BD2, BRD3BD1, BRD3BD2, BRD4BD1, and BRD4BD2 were subcloned into mammalian pcDNA5/FRT Vector (Ampicillin and Hygromycin B resistant) modified to contain MCS-eGFP-P2A-mCherry. […] Following 2-3 passage cycle FACS (FACSAria II, BD) was used to enrich for cells expressing eGFP and mCherry.
Signal from 5000 cells per well was acquired in singlicate or duplicate and the eGFP and mCherry florescence monitored. Data was analyzed using FlowJo (FlowJo, LCC). […] The eGFP protein abundance relative to mCherry was then quantified as a ten-fold amplified ratio for each individual cell using the formula: 10×eGFP/mCherry. The median of the ratio was then calculated per set, normalized to the median of the DMSO ratio, and is denoted as relative abundance. Standard deviation is calculated from four replicates (n=4) unless described otherwise.

[3] = molecular target: T2, IKZF1Δ-CRBN complex formation (Homo sapiens, UniProt Q13422+Q96SW2, DEL197-239); test: CRBN-IKZF1Δ binding assay (TR-FRET); conditions: IKZF1Δ and DDB1ΔB-CRBN
T2 construct: made in house; host or cells: Trichoplusia ni High-Five insect cells (baculovirus)
T2 sequence (Q96SW2 whole entry, stated change not applied): as the sequence (Q96SW2 whole entry, stated change not applied, the tested form may be a part) above
T2 sequence (Q13422 with tags, fused parts or gaps DEL197-239 limits assumed): as the sequence (Q13422 with tags, fused parts or gaps DEL197-239 limits assumed) above
Protocol: Compounds in CRBN mutants dimerization assay were dispensed as described above into 200 nM His6-DDB1-His6-CRBNmutants or 200 nM His6-DDB1ΔB-His6-CRBNWT, 100 nM BRD4BD1-BODIPY-SpyCatcher and 2 nM terbium-anti-HIS Ab (Invitrogen) in a buffer containing 50 mM Tris pH 7.5, 100 mM NaCl, 0.1% Pluronic F-68 solution (Sigma) and 2% DMSO (4% DMSO final). Before TR-FRET measurements were conducted, the reactions were incubated for 15 min at RT. […] The TR-FRET signal of each data point was extracted by calculating the 520/490 nm ratio. […] The peak height of TR-FRET dBET dose response data was calculated in GraphPad Prism 7 using Area Under Curve analysis for three independent replicates (n=3) and the mean peak height and standard deviation calculated.
The standard deviation in IKZF1A TR-FRET compound titrations was calculated from three biological replicates (n=3) as an average of 5 technical replicates per well per experiment, or as an average of 5 technical replicates of single experiment for unlabelled protein titrations.

cellular IKZF1 degradation (in words) [2]: equipotent to lenalidomide
induction of IKZF1-CRBN complex formation / IKZF1 binding (in words) [3]: pronounced complex formation
SMILES: COC(=O)C[C@@H]1N=C(c2ccc(Cl)cc2)c2c(sc(C(=O)NCCCCCCCCNc3cccc4c3C(=O)N(C3CCC(=O)NC3=O)C4=O)c2C)-n2c(C)nnc21 (stereo partly drawn) [dBET70, reference compound]
co-degradation of CRBN-lenalidomide neo-substrates IKZF1, IKZF3 and ZFP91 [1]: pronounced co-degradation of CRBN-lenalidomide neo-substrates IKZF1, IKZF3 and ZFP91
